{
  "source": "patent US20030022909A1",
  "about": "“Use of methylnaltrexone to treat immune suppression” (University of Chicago, priority 2001, published 2003)",
  "key": {"[1]": {"system": "blood lymphocyte responses", "conditions": "cited from earlier work"}, "[2]": {"system": "immune system effects of systemic morphine", "conditions": "rats, cited from earlier work"}, "[3]": {"system": "natural killer cells", "assay": "Animal study: number of natural killer cells in mice after treatment", "format": "in vivo", "conditions": "ten mice per group"}, "[4]": {"conditions": "cited from earlier work"}, "[5]": {"conditions": "white crystalline powder as provided; cited from earlier work"}, "[6]": {"conditions": "microinjection into the third ventricle"}},
  "note": "Read-outs that look alike come from different tables or passages of the source.",
  "data": [
    {"smiles": "C[N+]1(C)CC[C@]23c4c5ccc(O)c4O[C@H]2[C@@H](O)C=C[C@H]3[C@@H]1C5", "note": "[N-methylmorphine]", "values": [
      {"measurement": "analgesic responses", "setting": "[1]; [6]", "value": "maximal analgesic responses were present"},
      {"measurement": "inhibition of blood lymphocyte responses", "setting": "[1]; [6]", "value": 70, "unit": "%"},
      {"measurement": "plasma corticosterone concentration", "setting": "[1]; [6]", "value": "significantly elevated"},
      {"measurement": "effect on lymphocyte proliferation, plasma corticosterone concentrations or analgesic responses", "setting": "[1]; systemic administration", "value": "did not effect"}
    ]},
    {"smiles": "C[N@+]1(CC2CC2)CC[C@]23c4c5ccc(O)c4O[C@H]2C(=O)CC[C@@]3(O)[C@H]1C5", "note": "[methylnaltrexone, N-cyclopropylmethylnoroxymorphine-methobromide]", "values": [
      {"measurement": "antagonism of immune system effects of systemic morphine injection", "setting": "[2]; administered intracerebroventricularly", "value": "antagonize most of the immune system effects"},
      {"measurement": "antagonism of immune system effects of systemic morphine injection", "setting": "[2]; administered subcutaneously", "value": "failed to do so"},
      {"measurement": "number of natural killer cells present after treatment compared to Group 1 (control)", "setting": "[3]; Group 3: methylnaltrexone and morphine", "value": "comparable number of natural killer cells to Group 1"},
      {"measurement": "overt side effects", "setting": "[4]; intravenous 0.45 mg/kg, volunteers", "value": "not associated with any overt side effects"},
      {"measurement": "half-life", "setting": "[4]; intravenous compound", "value": "less than two"},
      {"measurement": "solubility in water", "setting": "[5]", "value": "freely soluble in water"}
    ]},
    {"smiles": "CN1CC[C@]23c4c5ccc(O)c4O[C@H]2[C@@H](O)C=C[C@H]3[C@H]1C5", "note": "[morphine]", "values": [
      {"measurement": "analgesic responses", "setting": "[1]; [6]", "value": "maximal analgesic responses were present"},
      {"measurement": "inhibition of blood lymphocyte responses", "setting": "[1]; [6]", "value": 70, "unit": "%"},
      {"measurement": "number of natural killer cells present after treatment compared to Group 1 (control)", "setting": "[3]; Group 2: placebo and morphine", "value": "significant decrease in the number of natural killer cells"}
    ]}
  ]
}
